Earlier results on one compound are cited in US20050261335A1, “Carvedilol formulations” (priority 2002, published 2005).

Where two headings read alike, the source gives them in different places.

Turning to `COc1ccccc1OCCNCC(O)COc1cccc2[nH]c3ccccc3c12` (racemic) [Carvedilol], the solubility (above pH 9.0) was below 1 µg/mL. The saturation solubility is around 100 µg/mL (pH 5, room temperature) and around 23 µg/mL (pH 7, room temperature).
